According to US20170157260A1, “Glycosylated Polypeptide and Drug Composition Containing said Polypeptide” (Glytech, Inc., priority 2011, published 2017):

Columns and labels:
[1] = tested on: growth hormone (GH) production; experiment: GH production suppression test with rats; type: in vivo; settings: Table 7 (Example 86), subcutaneous, 1 hour before GRF, plasma GH 5 minutes after GRF, vehicle 861
Description: This experimental line was carried out as a test line that can evaluate the pharmacological action of the glycosylated form on SSTR and its residence in blood after administration, with blood GH production amount as an indicator.
Moreover, GRF (GH releasing hormone, Growth hormone releasing factor) was used as the GH release enhancer. […] As heparin employed as the anticoagulant when collecting blood, Japanese Pharmacopeia heparin sodium injectable solution (Lot. B084, from Mochida Pharmaceutical Co., Ltd.) was used directly as stock solution.
As the control group, saline without glycosylated polypeptide was similarly administered (vehicle group). […] One hour after administration of the glycosylated form, i.e. after 50 minutes or more had passed under anesthesia, GRF was administered as the GH release enhancer to the tail vain at a dosage of 1 mL/kg with a glass syringe and an injection needle. Five minutes after administration of GRF, blood was collected from the rat cervical vein with a glass syringe containing heparin and an injection needle. 0.4 mL of the collected blood was left on ice for 20 minutes or more, then centrifuged (1,870×g, 4° C., 10 minutes), and 100 μL of the supernatant was taken as the plasma sample. As blank plasma, plasma obtained by similarly treating the blood collected from untreated rat cervical vein was employed. Plasma samples were frozen in storage until employed for measurement.
The plasma sample was diluted with the assay buffer supplied in the EIA kit to 20, 100, and 500-folds as measurement samples. […] By multiplying the results obtained and the dilution ratio, the GH concentration was calculated.

[2] = tested on: rat gastrointestinal obstruction model; experiment: Gastrointestinal obstruction model: intestinal fluid weight; type: in vivo, rats; settings: Table 9; jejunum, 1 hour after subcutaneous administration of 40 μM solution at 1 mL/kg, 18 hours after ligation
Description: (§1) This experimental line was carried out as a test line to evaluate the promotion of intestinal fluid absorption or the secretory suppressing action, using the change in the intestinal fluid weight in the jejunum after bowel obstruction as an indicator. Moreover, blood parameters of deviation enzymes amylase (pancreas), lactate dehydrogenase (LDH, liver), and creatine phosphokinase (CPK, skeletal muscle, cardiac muscle etc.) were measured as indicators of tissue disorders.
Anesthesia was introduced with inhalation of 2% isoflurane and laughing gas:oxygen=7:3, and this was maintained throughout the surgery. A median incision was made in the abdomen, and the jejunum at about 10 cm from the musculus suspensorius duodeni was ligated with a surgical suture. Then, the incision site was promptly sutured, and the rats were fasted until compound administration. […]
One hour after compound administration, a median incision was made in the abdomen under inhalation anesthesia, and 1.5 mL of blood was collected from the abdominal vena cava. […] The fluid and blood on the jejunum surface were removed with a paper towel, nerves, blood vessels, and fat attached to the jejunum was removed, this was cut into 6 cm lengths, and wet weight was measured. This was then dried at 36 degrees for 24 hours, and dry weight was measured.

[3] = tested on: rat gastrointestinal obstruction model; experiment: Gastrointestinal obstruction model: blood parameters (amylase, LDH, CPK); settings: Table 10; blood 1 hour after subcutaneous administration
Description: as §1
Anesthesia was introduced with inhalation of 2% isoflurane and laughing gas:oxygen=7:3, and this was maintained throughout the surgery. A median incision was made in the abdomen, and the jejunum at about 10 cm from the musculus suspensorius duodeni was ligated with a surgical suture. Then, the incision site was promptly sutured, and the rats were fasted until compound administration. In the sham treatment group, ligation of the jejunum was not performed, but the treatment of suturing the incision site after a median incision was made in the abdomen was performed.
Eighteen hours after the gastrointestinal obstruction surgery, this was subcutaneously administered into the dorsal cervix at a dosage of 1 mL/kg with a glass syringe and a 25 G injection needle (all from Terumo Corporation). As the vehicle group, saline without glycosylated polypeptide was similarly administered.
One hour after compound administration, a median incision was made in the abdomen under inhalation anesthesia, and 1.5 mL of blood was collected from the abdominal vena cava. Then, the ligated jejunum on the musculus suspensorius duodeni side was resected. The fluid and blood on the jejunum surface were removed with a paper towel, nerves, blood vessels, and fat attached to the jejunum was removed, this was cut into 6 cm lengths, and wet weight was measured. This was then dried at 36 degrees for 24 hours, and dry weight was measured.
The measuring methods employed were BG5B, UV-rate, and JSCC methods, respectively.

Molecule	GH ([1]; dose 10 nmol/kg) [ng/mL]	GH ([1]; dose 100 nmol/kg) [ng/mL]	Intestinal fluid weight [2] [mg]	amylase activity compared to the vehicle (in words) [3]	also measured
29C(disialo)-SRIF28 [Example 13]	497	88.5			
C[C@@H](O)[C@@H]1NC(=O)[C@H](CCCCN)NC(=O)[C@@H](Cc2c[nH]c3ccccc23)NC(=O)[C@H](Cc2ccccc2)NC(=O)[C@@H](NC(=O)[C@H](N)Cc2ccccc2)CSSC[C@@H](C(=O)N[C@H](CO)[C@@H](C)O)NC1=O [Octreotide, reference compound]			693 ± 48		
C(disialo)-R-K-SRIF14 [Example 18]				low value compared to the vehicle	LDH activity compared to the vehicle (in words) [3]: low value compared to the vehicle
N19C(disialo)-SRIF28 [Example 10]	563	1.5			
S1-2C(asialo)-SRIF28 [Example 28]			566 ± 34		
S1C(disialo)-SRIF28 [Example 1]				low value compared to the vehicle	
